Test results as given in US12220391B2, “Compositions and methods of use of β-hydroxy-β-methylbutyrate (HMB) for modulating autophagy and lipophagy” (Metabolic Technologies, LLC, priority 2016, dated 2025).

Assays:
[1] = compared with CaHMB; cited from earlier work
[2] = tested on: caspases-3 and -8 proteases; details: cited from earlier work
Primary preadipocytes = test: Dual-labeled LC3 (DsRed/GFP) imaging of autophagy in primary preadipocytes; format: cell-based; details: 1 mM HMB, 4 days
Protocol: A primary adipocyte cell based assay for visualizing HMB activated lipophagy was developed. Primary preadipocytes were cultured on glass coverslips and treated with HMB for four days in regular growth medium. Cells were fixed and mounted with DAPI-containing medium and imaged with 60× objective. Autophagy vesicles are in red with degradation of green signal indicative of autophagy activation (FIG. 7). Nuclei are stained in blue (FIG. 7). A dual-labeled LC3 retroviral expression contrast was used to generate recombinant retrovirus using 293GPG cells. Primary preadipocytes were infected with the viral particles and, starting with four days after infection, selected with geneticin for two weeks prior to the imaging experiments. The LC3 fusion construct labels the autophagosomes and harbors dual signals; DsRed and GFP green probes. In the basal state there is co-localization of the green and red signals resulting in a yellow signal in the merged panel (FIG. 7 top panel with no HMB). When autophagy is activated, the GFP probe is cleaved from LC3 by ATG4 and degraded resulting in loss of the green signal and in absence of the co-localization in the merged panel. The initial studies used preadipocytes infected with the LC3 containing retrovirus and treated or not treated for 4 days with 1 mM HMB (FIG. 7, top: no HMB, bottom +HMB).

ATG7 = ATG7 gene expression (qPCR) in primary human skeletal muscle myotubes; format: cell-based; details: HMB 1 mM, 4 days, HSMM myotubes, qPCR normalized to 36B4, n=6
Protocol: Cultured primary human skeletal muscle cells (HSMM, Lonza) were grown to confluence and differentiated into myotubes. The cells were then supplemented with HMB (1 mM) for 4 days (n=6 for treatment or control groups) with a medium change every other day. Gene expression (mRNA) was determined at the end of the treatment by quantitative polymerase chain reaction (qPCR). For normalization, the mRNA signal was adjusted to the co-amplified signal of the ribosomal protein 36B4.

[3] = tested on: autophagy related protein (ATG7); test: ATG7 gene expression in differentiated adipocytes; format: cell-based; details: HMB, 96 hours, n=6, p<0.05
Protocol: (§1) Differentiated adipocytes were treated with HMB in regular growth medium for determination of lipolysis and gene expression. The adipocytes were pretreated for 48 hours with 1 mM HMB (n=4), resulting in basal and 1 uM isoproterenol stimulated lipolysis (FIG. 3A).

mTOR = details: in vitro, through mTOR phosphorylation; cited from earlier work
muscle cells (HSMM) = test: Phosphor protein array, HSMM muscle cells; format: cell-based, human; details: HMB-treated HSMM muscle cells
Protocol: (§2) Lysates from HMB-treated muscle (HSMM) and adipocytes (SGBS) were analyzed using a phosphor protein array. Many mTOR targets were regulated in both cell system (FIG. 8). Increases in CREB phosphorylation on serine 133 on a signaling protein array using SGBS adipocytes treated HMB was seen (FIG. 8). Thus, the activating phosphorylation of CREB at S133 mediates induction of TFEB in these adipocytes and this pathway results in the upregulation of autophagy.

[4] = tested on: plasma CPK (creatine phosphokinase); details: following intense exercise, within the first 48 hrs of supplementation; cited from earlier work
BNIP3 = BNIP3 gene expression in human primary adipocytes; format: cell-based; details: 1 mM HMB, 96 hours, n=3, p<0.05
Source text: (§3) These transcription factors represent two different autophagy pathways.

[5] = healthy young or old adults; cited from earlier work
[6] = tested on: adipose triglyceride lipase (ATGL); test: ATGL gene expression in differentiated adipocytes; format: cell-based; details: HMB, 96 hours, n=6, p<0.05
Protocol: as §1

AMPK [7] = test: AMPK activation (phosphorylated AMPK substrates, total AMPK) in primary human adipocytes; format: cell-based; details: 1 mM HMB, 96 hours
Protocol: A line of subcutaneous preadipocytes isolated from normal humans (non-diabetic controls) was used. These cells differentiate well (see FIG. 4) and provide a good in vitro model for studying effects of HMB on lipophagy. […] Differentiated adipocytes (14 days post confluence) were treated for 4 days with 1 mM HMB supplemented in normal growth medium. Lysates were probed with an antibody (Cell Signal Technologies) directed against AMPK phosphorylated substrates (consensus motif LCRXXpS/pT) to obtain a broad evaluation of AMPK activation and total AMPK levels were also measured. […] The cells were lysed and probed for phosphorylated targets of AMPK and for total AMPK levels (FIG. 5B).

[8] = after HMB is fed; cited from earlier work
adipocytes (SGBS) = test: Phosphor protein array, SGBS adipocytes; format: cell-based; details: HMB-treated SGBS adipocytes
Protocol: as §2

[9] = tested on: ubiquitin-proteosome proteolytic pathway; details: muscle protein catabolism stimulated by PIF, LPS and angiotensin II; cited from earlier work
[10] = tested on: differentiated adipocytes; test: Lipolysis in differentiated adipocytes; format: cell-based; details: pretreated 48 hours with 1 mM HMB; basal and 1 uM isoproterenol; n=4
Protocol: as §1

AMPK [11] = test: AMPK activation in HEK293 cells; format: cell-based; details: similarly treated HEK293 cells (data not shown)
TFEB = TFEB gene expression in human primary adipocytes; format: cell-based; details: 1 mM HMB, 96 hours, n=3, p<0.05
Source text: as §3

CC(C)(O)CC(=O)O [HMB free acid, β-hydroxy-β-methylbutyric acid]
absorption [1]: absorbed quicker
tissue clearance [1]: greater tissue clearance

CC(C)(O)CC(=O)O [HMB, β-hydroxy-β-methylbutyric acid]
activation of caspases-3 and -8 proteases [2]: attenuates
size of autophagic puncta (Primary preadipocytes): significant increases
LC3 GFP green signal and green/red co-localization (Primary preadipocytes; preadipocytes infected with LC3 retrovirus): Loss of green signals and absence of green/red co-localization
ATG7 gene expression (mRNA) (ATG7): Significant (p<0.01) upregulation
ATG7 gene expression [3]: significantly increased
protein synthesis (mTOR): stimulates
RSK 1/2/3 phosphorylation at the mTOR site (S473) (muscle cells (HSMM)): significant reduction
activation of STAT3 (muscle cells (HSMM)): reduced activation
activation of p53 (muscle cells (HSMM)): reduced activation
mTOR activity (muscle cells (HSMM)): inhibition
p70 S6 kinase phosphorylation at several threonine p-sites (muscle cells (HSMM)): significant reduction
muscle damage measured by elevated plasma CPK [4]: reduced
BNIP3 mRNA levels (BNIP3): increased
side effects [5]: no side effects
ATGL gene expression [6]: significantly increased
total AMPK levels (AMPK [7]): not significantly changed
AMPK substrate phosphorylation intensity (AMPK [7]; densitometry, n=3, p<0.01): significant increase
loss of HMB to urine [8]: 20-50%
CREB phosphorylation (serine 133) (adipocytes (SGBS)): enhanced
HSP27 phosphorylation (adipocytes (SGBS)): enhanced
Yes kinase phosphorylation (adipocytes (SGBS)): Enhanced
activation of p53 (adipocytes (SGBS)): Reduced activation
activation of pSTAT3 (adipocytes (SGBS)): Reduced activation
activity of the mTOR pathway (adipocytes (SGBS)): Reduced activity
proteolysis [9]: decreases
lipolysis (basal and isoproterenol stimulated) [10]: activates
AMPK substrate phosphorylation increase (AMPK [11]): not observed
TFEB mRNA levels (TFEB): increased
